Reference: ChEMBL document CHEMBL1130254, “Screening solution-phase combinatorial libraries using pulsed ultrafiltration/electrospray mass spectrometry” (J Med Chem, 1997)

Tests used:
[1] = target: T1, Adenosine deaminase (Homo sapiens) (UniProt P00813)
T1 sequence (whole entry): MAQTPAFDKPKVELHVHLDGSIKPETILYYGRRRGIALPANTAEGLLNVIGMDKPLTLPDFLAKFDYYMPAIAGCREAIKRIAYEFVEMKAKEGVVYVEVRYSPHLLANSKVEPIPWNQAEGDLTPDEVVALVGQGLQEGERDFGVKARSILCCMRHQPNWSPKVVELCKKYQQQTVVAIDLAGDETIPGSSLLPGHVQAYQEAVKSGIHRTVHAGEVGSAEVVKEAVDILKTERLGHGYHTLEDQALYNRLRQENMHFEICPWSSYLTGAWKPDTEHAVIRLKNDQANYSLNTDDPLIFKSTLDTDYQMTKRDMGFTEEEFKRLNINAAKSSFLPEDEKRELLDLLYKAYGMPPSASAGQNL
Description: Adenosine deaminase inhibition index

[2] = Relative ion enhancement, determined in pulsed ultrafiltration; format: ADME

| ([I]/[S]0.5) [1] | Ion enhancement [2] | Compound |
| --- | --- | --- |
| 0.00042 | 1 | CCCCCC[C@@H]([C@@H](C)O)n1cnc2c(N)ncnc21 [EHNA] |
| 0.00016 | 5.3 | CCCCCCCCC(C(C)O)n1cnc2c(N)ncnc21 (stereo unspecified) |
| 0.069 | < 0.01 | CC(O)C(Cc1ccccc1)n1cnc2c(N)ncnc21 (stereo unspecified) |
